Measurements published in US7078552B2, “Combretastatin A-1 phosphate and combretastatin B-1 phosphate prodrugs” (Arizona Board of Regents, priority 2000, dated 2006).

How the values were obtained:
Assay type in all cases: cell-based
[1] = system: NCl-H460; assay: Human cancer cell line growth inhibition, Lung-NSC NCl-H460; conditions: NCl-H460
[2] = system: SF-295; assay: Human cancer cell line growth inhibition, CNS SF-295
[3] = system: OVCAR-3; assay: Human cancer cell line growth inhibition, Ovarian OVCAR-3
[4] = system: P388 lymphocytic leukemia cell line; assay: Murine P388 lymphocytic leukemia in vitro cell growth inhibition; conditions: P388 cell line
[5] = system: BXPC-3; assay: Human cancer cell line growth inhibition, Pancreas-a BXPC-3
[6] = system: KM20L2; assay: Human cancer cell line growth inhibition, Colon KM20L2; conditions: KM20L2
[7] = system: DU-I45; assay: Human cancer cell line growth inhibition, Prostate DU-I45; conditions: DU-I45

Molecule: COc1cc(/C=C\c2ccc(OC)c(OP(=O)([O-])[O-])c2OP(=O)([O-])[O-])cc(OC)c1OC.[Li+].[Li+].[Li+].[Li+] [Compound 11a, Lithium Combretastatin A-1 2′,3′-O-diphosphate]
- Lung-NSC NCl-H460 GI50 [1]: 0.040 µg/mL
- CNS SF-295 GI50 [2]: 0.042 µg/mL
- Ovarian OVCAR-3 GI50 [3]: 0.028 µg/mL
- Leukemia P388 ED50 [4]: <0.0100 µg/mL
- Pancreas-a BXPC-3 GI50 [5]: 0.33 µg/mL
- Colon KM20L2 GI50 [6]: 0.37 µg/mL
- Prostate DU-I45 GI50 [7]: 0.031 µg/mL

Molecule: COc1cc(/C=C\c2ccc(OC)c(OP(=O)([O-])[O-])c2OP(=O)([O-])[O-])cc(OC)c1OC.[Cs+].[Cs+].[Cs+].[Cs+] [Compound 11c, Cesium Combretastatin A-1 2′,3′-O-diphosphate]
- Lung-NSC NCl-H460 GI50 [1]: 0.040 µg/mL
- CNS SF-295 GI50 [2]: 0.038 µg/mL
- Ovarian OVCAR-3 GI50 [3]: 0.024 µg/mL
- Leukemia P388 ED50 [4]: 0.0365 µg/mL
- Pancreas-a BXPC-3 GI50 [5]: 0.31 µg/mL
- Colon KM20L2 GI50 [6]: 0.28 µg/mL
- Prostate DU-I45 GI50 [7]: 0.024 µg/mL

Molecule: COc1cc(/C=C\c2ccc(OC)c(OP(=O)([O-])[O-])c2OP(=O)([O-])[O-])cc(OC)c1OC.[Mn+2].[Mn+2] [Compound 11f, Manganese Combretastatin A-1 2′, 3′-O-diphosphate]
- Lung-NSC NCl-H460 GI50 [1]: 0.19 µg/mL
- CNS SF-295 GI50 [2]: 0.28 µg/mL
- Ovarian OVCAR-3 GI50 [3]: 0.044 µg/mL
- Leukemia P388 ED50 [4]: 0.715 µg/mL
- Pancreas-a BXPC-3 GI50 [5]: 4.7 µg/mL
- Colon KM20L2 GI50 [6]: 6.1 µg/mL
- Prostate DU-I45 GI50 [7]: 2.4 µg/mL

Molecule: COc1cc(/C=C\c2ccc(OC)c(OP(=O)([O-])[O-])c2OP(=O)([O-])[O-])cc(OC)c1OC.[Zn+2].[Zn+2] [Compound 11g, Dizinc Combretastatin A-1 2′,3′-O-diphosphate]
- Lung-NSC NCl-H460 GI50 [1]: 0.032 µg/mL
- CNS SF-295 GI50 [2]: 0.033 µg/mL
- Ovarian OVCAR-3 GI50 [3]: 0.027 µg/mL
- Leukemia P388 ED50 [4]: 0.0394 µg/mL
- Pancreas-a BXPC-3 GI50 [5]: 0.36 µg/mL
- Colon KM20L2 GI50 [6]: 0.32 µg/mL
- Prostate DU-I45 GI50 [7]: 0.025 µg/mL

Molecule: Calcium Combretastatin A-1 2′,3′-O-diphosphate [Compound 11e]
- Lung-NSC NCl-H460 GI50 [1]: 0.037 µg/mL
- CNS SF-295 GI50 [2]: 0.041 µg/mL
- Ovarian OVCAR-3 GI50 [3]: 0.024 µg/mL
- Leukemia P388 ED50 [4]: 0.0102 µg/mL
- Pancreas-a BXPC-3 GI50 [5]: 0.28 µg/mL
- Colon KM20L2 GI50 [6]: 0.34 µg/mL
- Prostate DU-I45 GI50 [7]: 0.024 µg/mL

Molecule: Magnesium Combretastatin A-1 2′,3′-O-diphosphate [Compound 11d]
- Lung-NSC NCl-H460 GI50 [1]: 0.039 µg/mL
- CNS SF-295 GI50 [2]: 0.039 µg/mL
- Ovarian OVCAR-3 GI50 [3]: 0.031 µg/mL
- Leukemia P388 ED50 [4]: 0.0245 µg/mL
- Pancreas-a BXPC-3 GI50 [5]: 0.44 µg/mL
- Colon KM20L2 GI50 [6]: 0.47 µg/mL
- Prostate DU-I45 GI50 [7]: 0.032 µg/mL

Molecule: Morpholine Combretastatin A-1 2′,3′-O-diphosphate [Compound 11h]
- Lung-NSC NCl-H460 GI50 [1]: 0.046 µg/mL
- CNS SF-295 GI50 [2]: 0.042 µg/mL
- Ovarian OVCAR-3 GI50 [3]: 0.043 µg/mL
- Leukemia P388 ED50 [4]: 0.002 µg/mL
- Pancreas-a BXPC-3 GI50 [5]: 0.35 µg/mL
- Colon KM20L2 GI50 [6]: 0.26 µg/mL
- Prostate DU-I45 GI50 [7]: 0.039 µg/mL
